Laboratory results as given in patent US7666906B2, “β-Benzyloxyaspartate derivatives with amino group on benzene ring” (Suntory Holdings Limited, priority 2001, dated 2010).

How the values were obtained:
[1] = biological target: T1, human EAAT2 (Homo sapiens, UniProt P43004); experiment: inhibition of [14C]glutamate uptake by human EAAT2 expressed on MDCK or COS-1 cells; format: cell-based; settings: 1 μM L-[14C]glutamate, 12 minutes
T1 construct: expressed in transfected cells
From the text: (§1) Well-known methods can be used to determine inhibitory activity of the compounds of the invention on glutamate transporters. For example, the compounds of the invention have been confirmed to inhibit uptake of ^14C-labeled glutamate into cells by human EAAT2 and EAAT3 stably expressed on MDCK (Madin-Darby Canine Kidney) cells or transiently expressed on COS-1 cells.
(§2) A known method (Shimamoto, K. et al., Mol. Pharmacol. 53, 195-201, 1998; Bioorg. Med. Chem. Lett. 10, 2407-2410, 2000) was used to measure the inhibitory effect on uptake of [^14C]glutamate by human EAAT2 and EAAT3 stably expressed on MDCK (Madin-Darby Canine Kidney) cells or transiently expressed on COS-1 cells. The glutamate uptake activity was measured by adding 1 μM of L-[^14C]glutamate and a prescribed concentration of sample, incubating for 12 minutes and then lysating the cells, and using a liquid scintillator to determine the radioactivity uptake. The uptake was expressed as a percentage, with 100% being the uptake with no compound (buffer alone) and 0% being the uptake with a sodium-free solution.

[2] = biological target: T2, human EAAT3 (Homo sapiens, UniProt P43005); experiment: inhibition of [14C]glutamate uptake by human EAAT3 expressed on MDCK or COS-1 cells; format: cell-based; settings: 1 μM L-[14C]glutamate, 12 minutes
T2 construct: expressed in transfected cells
T2 sequence (P43005 1-524): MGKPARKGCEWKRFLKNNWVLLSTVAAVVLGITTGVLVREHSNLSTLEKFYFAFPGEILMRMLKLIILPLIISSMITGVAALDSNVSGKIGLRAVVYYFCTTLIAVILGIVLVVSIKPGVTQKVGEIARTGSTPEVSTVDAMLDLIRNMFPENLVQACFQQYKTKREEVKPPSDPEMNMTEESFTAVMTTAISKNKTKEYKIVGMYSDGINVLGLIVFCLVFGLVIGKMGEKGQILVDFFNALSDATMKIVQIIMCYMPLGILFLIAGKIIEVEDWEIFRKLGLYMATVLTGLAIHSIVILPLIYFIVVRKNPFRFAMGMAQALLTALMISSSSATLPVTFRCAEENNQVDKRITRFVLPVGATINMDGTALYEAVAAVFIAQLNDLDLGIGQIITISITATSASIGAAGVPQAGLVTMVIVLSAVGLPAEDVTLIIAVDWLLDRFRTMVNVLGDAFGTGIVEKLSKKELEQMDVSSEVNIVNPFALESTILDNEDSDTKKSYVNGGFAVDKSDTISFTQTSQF
From the text: as §1, §2

[3] = COS-1 cells (transiently expressed), marked *

T1 sequence (P43004 whole entry): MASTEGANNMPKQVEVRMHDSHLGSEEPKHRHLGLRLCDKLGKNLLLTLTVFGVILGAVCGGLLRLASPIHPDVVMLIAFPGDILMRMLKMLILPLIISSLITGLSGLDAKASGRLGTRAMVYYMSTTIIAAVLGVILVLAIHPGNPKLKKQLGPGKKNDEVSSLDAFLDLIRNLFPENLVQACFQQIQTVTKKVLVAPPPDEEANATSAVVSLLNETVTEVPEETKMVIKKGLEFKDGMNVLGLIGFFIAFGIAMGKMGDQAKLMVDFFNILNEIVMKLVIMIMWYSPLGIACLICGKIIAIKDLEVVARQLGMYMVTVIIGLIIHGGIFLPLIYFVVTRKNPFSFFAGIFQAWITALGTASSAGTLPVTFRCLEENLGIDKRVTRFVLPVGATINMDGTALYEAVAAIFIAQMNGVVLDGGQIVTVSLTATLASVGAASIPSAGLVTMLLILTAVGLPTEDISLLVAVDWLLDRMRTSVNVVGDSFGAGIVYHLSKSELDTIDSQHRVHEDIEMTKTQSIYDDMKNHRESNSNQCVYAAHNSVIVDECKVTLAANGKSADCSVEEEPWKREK

Row | Compound | IC50 ([1]; stably expressed on MDCK cells) [nM] | IC50 ([2]; stably expressed on MDCK cells) [nM] | IC50 [1, 3] [nM] | IC50 [2, 3] [nM]
1 | NCCCCCOc1ccc(C(=O)Nc2cccc(CO[C@H](C(=O)O)[C@H](N)C(=O)O)c2)cc1 [A-PenO-BzA-TBOA, (2S,3S)-3-[3-(N-(4-(5-aminopentyloxy)benzoyl)amino)benzyloxy]aspartic acid] | 7300 ± 1100 | 2200 ± 200 |  | 
2 | Nc1cccc(CO[C@H](C(=O)O)[C@H](N)C(=O)O)c1 [A-TBOA, (2S,3S)-3-(3-aminobenzyloxy)aspartic acid] | 2100 ± 100 | 7900 ± 760 |  | 
3 | NCCC(=O)Nc1cccc(CO[C@H](C(=O)O)[C@H](N)C(=O)O)c1 [AA-TBOA, (2S,3S)-3-[3-(3-aminopropionylamino)benzyloxy]aspartic acid] | 13000 ± 1100 | 13000 ± 1100 |  | 
4 | N[C@H](C(=O)O)[C@H](OCc1cccc(NC(=O)CCNC(=O)CCCC[C@@H]2SC[C@@H]3NC(=O)N[C@@H]32)c1)C(=O)O [Bio-AA-TBOA, (2S,3S)-3-[3-(3-N-biotinylaminopropionylamino)benzyloxy]aspartic acid] | 6300 ± 390 | 10000 ± 930 |  | 
5 | N[C@H](C(=O)O)[C@H](OCc1cccc(NC(=O)c2ccc(OCCCCCNC(=O)CCCC[C@@H]3SC[C@@H]4NC(=O)N[C@@H]43)cc2)c1)C(=O)O [BioA-PenO-BzA-TBOA, (2S,3S)-3-[3-(N-(4-(5-biotynylaminopentyloxy)benzoyl)amino)benzyloxy]aspartic acid] | 2200 ± 520 | 1100 ± 60 |  | 
6 | N[C@H](C(=O)O)[C@H](OCc1cccc(NC(=O)CCCC[C@@H]2SC[C@@H]3NC(=O)N[C@@H]32)c1)C(=O)O [BioA-TBOA, (2S,3S)-3-[3-(N-biotinylamino)benzyloxy]aspartic acid] | 38000 ± 13000 | 25000 ± 2400 |  | 
7 | N[C@H](C(=O)O)[C@H](OCc1cccc(NC(=O)c2ccccc2)c1)C(=O)O [BzA-TBOA, (2S,3S)-3-[3-(N-benzoylamino)benzyloxy]aspartic acid] | 55 ± 5 | 726 ± 98 |  | 
8 | N[C@H](C(=O)O)[C@H](OCc1cccc(NC(=O)c2ccc(C(F)(F)F)cc2)c1)C(=O)O [CF3-BzA-TBOA, (2S,3S)-3-[3-[N-(4-trifluoromethylbenzoyl)amino]benzyloxy]aspartic acid] | 1.9 ± 0.1 | 28 ± 1.8 |  | 
9 | N[C@H](C(=O)O)[C@H](OCc1cccc(NC(=O)C2CCCCC2)c1)C(=O)O [CHexcA-TBOA, (2S,3S)-3-[3-(N-cyclohexylcarbonylamino)benzyloxy]aspartic acid] | 244 ± 12 | 288 ± 8 |  | 
10 | N#Cc1ccc(C(=O)Nc2cccc(CO[C@H](C(=O)O)[C@H](N)C(=O)O)c2)cc1 [CN-BzA-TBOA, (2S,3S)-3-[3-[N-(4-cyanobenzoyl)amino]benzyloxy]aspartic acid] | 36 ± 2.9 | 1400 ± 99 |  | 
11 | COc1ccc(C(=O)Nc2cccc(CO[C@H](C(=O)O)[C@H](N)C(=O)O)c2)cc1OC [DiMeO-BzA-TBOA, (2S,3S)-3-[3-[N-(3,4-dimethoxybenzoyl)amino]benzyloxy]aspartic acid] | 49 ± 3.8 | 917 ± 30 |  | 
12 | N[C@H](C(=O)O)[C@H](OCc1cccc(NC(=O)c2ccc(F)cc2)c1)C(=O)O [F-BzA-TBOA, (2S,3S)-3-[3-[N-(4-fluorobenzoyl)amino]benzyloxy]aspartic acid] | 22 ± 2.7 | 473 ± 13 |  | 
13 | N[C@H](C(=O)O)[C@H](OCc1cccc(NC(=O)c2ccc([N+](=O)[O-])cc2)c1)C(=O)O [NO2-BzA-TBOA, (2S,3S)-3-[3-[N-(4-nitrobenzoyl)amino]benzyloxy]aspartic acid] | 14 ± 1.4 | 278 ± 32 |  | 
14 | N[C@H](C(=O)O)[C@H](OCc1cccc(NC(=O)c2ccc(OC(F)(F)F)cc2)c1)C(=O)O [OCF3-BzA-TBOA, (2S,3S)-3-[3-[N-(4-trifluoromethoxybenzoyl)amino]benzyloxy]aspartic acid] | 7 ± 0.5 | 128 ± 12 |  | 
15 | CCCCCCOc1ccc(C(=O)Nc2cccc(CO[C@H](C(=O)O)[C@H](N)C(=O)O)c2)cc1 [OHex-BzA-TBOA, (2S,3S)-3-[3-[N-(4-n-hexyloxybenzoyl)amino]benzyloxy]aspartic acid] | 1.2 ± 0.04 | 18 ± 1.6 |  | 
16 | N[C@H](C(=O)O)[C@H](OCc1cccc(NC(=O)c2ccc(-c3ccccc3)cc2)c1)C(=O)O [Ph-BzA-TBOA, (2S,3S)-3-[3-[N-(4-phenylbenzoyl)amino]benzyloxy]aspartic acid] | 21 ± 2.2 | 34 ± 19 |  | 
17 | N[C@H](C(=O)O)[C@H](OCc1ccccc1)C(=O)O [TBOA, L-threo-β-benzyloxyaspartate, reference compound] | 1400 ± 120 | 1300 ± 110 |  | 

Further lines, results first:

Row | IC50 ([1]; stably expressed on MDCK cells) [nM] | IC50 ([2]; stably expressed on MDCK cells) [nM] | IC50 [1, 3] [nM] | IC50 [2, 3] [nM] | Compound
18 | 143 ± 7.9 | 529 ± 32 |  |  | N[C@H](C(=O)O)[C@H](OCc1cccc(NC(=O)Cc2ccccc2)c1)C(=O)O [PhAcA-TBOA, (2S,3S)-3-[3-(N-phenylacetylamino)benzyloxy]aspartic acid]
19 | 1000 ± 130 | 4100 ± 670 |  |  | CC(C)(C)C(=O)Nc1cccc(CO[C@H](C(=O)O)[C@H](N)C(=O)O)c1 [Piv-A-TBOA, (2S,3S)-3-[3-(N-pivaroylamino)benzyloxy]aspartic acid]
20 | 2000 ± 210 | 7900 ± 460 |  |  | CCC(=O)Nc1cccc(CO[C@H](C(=O)O)[C@H](N)C(=O)O)c1 [Pr-A-TBOA, (2S,3S)-3-[3-(N-propionylamino)benzyloxy]aspartic acid]
21 | 6000 ± 1400 | 7600 ± 450 |  |  | CCC(=O)NCCC(=O)Nc1cccc(COC(C(=O)O)C(N)C(=O)O)c1 [Pr-AA-TBOA, (2S,3S)-3-[3-(3-N-propionylaminopropionylamino)benzyloxy]aspartic acid]
22 | 25 ± 0.5 | 182 ± 11 |  |  | CC(C)(C)c1ccc(C(=O)Nc2cccc(CO[C@H](C(=O)O)[C@H](N)C(=O)O)c2)cc1 [TBu-BzA-TBOA, (2S,3S)-3-[3-[N-(4-tert-butylbenzoyl)amino]benzyloxy]aspartic acid]
23 | 37 ± 2.5 | 356 ± 12 |  |  | COc1cccc(C(=O)Nc2cccc(CO[C@H](C(=O)O)[C@H](N)C(=O)O)c2)c1 [m-MeO-BzA-TBOA, (2S,3S)-3-[3-[N-(3-methoxybenzoyl)amino]benzyloxy]aspartic acid]
24 | 145 ± 2.2 | 1000 ± 42 |  |  | COc1ccccc1C(=O)Nc1cccc(CO[C@H](C(=O)O)[C@H](N)C(=O)O)c1 [o-MeO-BzA-TBOA, (2S,3S)-3-[3-[N-(2-methoxybenzoyl)amino]benzyloxy]aspartic acid]
25 | 12 ± 0.5 | 266 ± 20 |  |  | COc1ccc(C(=O)Nc2cccc(CO[C@H](C(=O)O)[C@H](N)C(=O)O)c2)cc1 [p-MeO-BzA-TBOA, (2S,3S)-3-[3-[N-(4-methoxybenzoyl)amino]benzyloxy]aspartic acid]
26 |  |  | 111000 ± 25000 | 295000 ± 118000 | CCC(=O)Nc1ccc(CO[C@H](C(=O)O)[C@H](N)C(=O)O)cc1 [p-Pr-A-TBOA, (2S,3S)-3-[4-(N-propionylamino)benzyloxy]aspartic acid]
